The target in experiment [1] is 5-hydroxytryptamine receptor 5A (Homo sapiens, UniProt P47898). Kind of experiment: PDSP Secondary Binding target: HTR5A - Compounds are tested at 10 uM concentration, plate are incubated at room temperature in the dark for 90 minutes. Reaction are stopped by vacuum filtration onto 0.3% polyethyleneimine soaked filter mats using Filtermate harvester. Scintillation cocktail is then melted onto microwave-dried filters on a hot plate and the radio activity is counted in Microbia counter.

Experiment [2] concerns the target Sigma intracellular receptor 2 (Homo sapiens, UniProt Q5BJF2). Kind of experiment: PDSP Secondary Binding target: TMEM97 - Compounds are tested at 10 uM concentration, plate are incubated at room temperature in the dark for 90 minutes. Reaction are stopped by vacuum filtration onto 0.3% polyethyleneimine soaked filter mats using Filtermate harvester. Scintillation cocktail is then melted onto microwave-dried filters on a hot plate and the radio activity is counted in Microbia counter.

The target in experiment [3] is Sigma non-opioid intracellular receptor 1 (Homo sapiens, UniProt Q99720). Kind of experiment: PDSP Secondary Binding target: SIGMAR1 - Compounds are tested at 10 uM concentration, plate are incubated at room temperature in the dark for 90 minutes. Reaction are stopped by vacuum filtration onto 0.3% polyethyleneimine soaked filter mats using Filtermate harvester. Scintillation cocktail is then melted onto microwave-dried filters on a hot plate and the radio activity is counted in Microbia counter.

The next experiment concerns the target Mu-type opioid receptor (Homo sapiens, UniProt P35372). Nature of the experiment: PDSP Secondary Binding target: OPRM1 - Compounds are tested at 10 uM concentration, plate are incubated at room temperature in the dark for 90 minutes. Reaction are stopped by vacuum filtration onto 0.3% polyethyleneimine soaked filter mats using Filtermate harvester. Scintillation cocktail is then melted onto microwave-dried filters on a hot plate and the radio activity is counted in Microbia counter.

The target in another experiment is D(3) dopamine receptor (Homo sapiens, UniProt P35462). Nature of the experiment: PDSP Secondary Binding target: DRD3 - Compounds are tested at 10 uM concentration, plate are incubated at room temperature in the dark for 90 minutes. Reaction are stopped by vacuum filtration onto 0.3% polyethyleneimine soaked filter mats using Filtermate harvester. Scintillation cocktail is then melted onto microwave-dried filters on a hot plate and the radio activity is counted in Microbia counter.

Experiment [4] deals with 5-hydroxytryptamine receptor 2A (Homo sapiens, UniProt P28223). Nature of the experiment: PDSP Secondary Binding target: HTR2A - Compounds are tested at 10 uM concentration, plate are incubated at room temperature in the dark for 90 minutes. Reaction are stopped by vacuum filtration onto 0.3% polyethyleneimine soaked filter mats using Filtermate harvester. Scintillation cocktail is then melted onto microwave-dried filters on a hot plate and the radio activity is counted in Microbia counter.

The target of experiment [5] is 5-hydroxytryptamine receptor 6 (Homo sapiens, UniProt P50406). Kind of experiment: PDSP Secondary Binding target: HTR6 - Compounds are tested at 10 uM concentration, plate are incubated at room temperature in the dark for 90 minutes. Reaction are stopped by vacuum filtration onto 0.3% polyethyleneimine soaked filter mats using Filtermate harvester. Scintillation cocktail is then melted onto microwave-dried filters on a hot plate and the radio activity is counted in Microbia counter.

The target in experiment [6] is T1, Alpha-2A adrenergic receptor (Homo sapiens, UniProt P08913).
T1 sequence (P08913 whole entry): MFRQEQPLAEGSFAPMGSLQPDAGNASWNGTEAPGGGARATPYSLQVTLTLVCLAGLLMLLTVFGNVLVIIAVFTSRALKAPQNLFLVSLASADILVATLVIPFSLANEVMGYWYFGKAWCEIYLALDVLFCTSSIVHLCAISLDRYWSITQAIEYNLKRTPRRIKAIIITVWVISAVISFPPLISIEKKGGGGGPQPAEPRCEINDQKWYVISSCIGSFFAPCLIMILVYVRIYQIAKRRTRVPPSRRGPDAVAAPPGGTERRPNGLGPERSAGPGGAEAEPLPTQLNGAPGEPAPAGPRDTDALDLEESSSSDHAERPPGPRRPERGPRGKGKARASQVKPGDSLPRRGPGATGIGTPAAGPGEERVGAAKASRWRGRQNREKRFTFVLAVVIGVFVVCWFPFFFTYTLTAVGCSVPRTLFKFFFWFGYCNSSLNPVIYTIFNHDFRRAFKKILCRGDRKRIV
Kind of experiment: PDSP Secondary Binding target: ADRA2A - Compounds are tested at 10 uM concentration, plate are incubated at room temperature in the dark for 90 minutes. Reaction are stopped by vacuum filtration onto 0.3% polyethyleneimine soaked filter mats using Filtermate harvester. Scintillation cocktail is then melted onto microwave-dried filters on a hot plate and the radio activity is counted in Microbia counter.

For experiment [7], the target named is T2, Alpha-1D adrenergic receptor (Homo sapiens, UniProt P25100).
T2 sequence (P25100 whole entry): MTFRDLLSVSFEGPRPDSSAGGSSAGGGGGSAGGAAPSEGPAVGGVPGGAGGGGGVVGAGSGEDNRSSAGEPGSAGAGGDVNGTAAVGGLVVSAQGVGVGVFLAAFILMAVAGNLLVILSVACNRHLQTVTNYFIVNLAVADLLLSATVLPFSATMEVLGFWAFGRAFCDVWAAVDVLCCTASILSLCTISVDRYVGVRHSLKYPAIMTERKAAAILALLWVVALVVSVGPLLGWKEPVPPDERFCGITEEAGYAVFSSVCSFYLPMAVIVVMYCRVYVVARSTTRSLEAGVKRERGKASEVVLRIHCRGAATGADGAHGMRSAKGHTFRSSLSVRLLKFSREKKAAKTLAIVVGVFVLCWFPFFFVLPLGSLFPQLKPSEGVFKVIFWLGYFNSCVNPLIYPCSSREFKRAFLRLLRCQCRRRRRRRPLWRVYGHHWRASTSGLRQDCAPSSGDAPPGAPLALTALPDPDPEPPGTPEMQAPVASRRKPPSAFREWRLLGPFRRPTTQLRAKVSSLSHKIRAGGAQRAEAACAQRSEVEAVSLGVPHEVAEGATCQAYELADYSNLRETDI
Kind of experiment: PDSP Secondary Binding target: ADRA1D - Compounds are tested at 10 uM concentration, plate are incubated at room temperature in the dark for 90 minutes. Reaction are stopped by vacuum filtration onto 0.3% polyethyleneimine soaked filter mats using Filtermate harvester. Scintillation cocktail is then melted onto microwave-dried filters on a hot plate and the radio activity is counted in Microbia counter.

For the next experiment, the target named is D(2) dopamine receptor (Homo sapiens, UniProt P14416). Kind of experiment: PDSP Secondary Binding target: DRD2 - Compounds are tested at 10 uM concentration, plate are incubated at room temperature in the dark for 90 minutes. Reaction are stopped by vacuum filtration onto 0.3% polyethyleneimine soaked filter mats using Filtermate harvester. Scintillation cocktail is then melted onto microwave-dried filters on a hot plate and the radio activity is counted in Microbia counter.

Results on 23 compounds are retold here after ChEMBL document CHEMBL5442175, “EUbOPEN Chemogenomics Library - PDSP Secondary Binding” (2024).

Counter-ions that a name gives are not always drawn. Bounds are passed on as bounds.

Sequence of Sigma intracellular receptor 2 (Q5BJF2 whole entry): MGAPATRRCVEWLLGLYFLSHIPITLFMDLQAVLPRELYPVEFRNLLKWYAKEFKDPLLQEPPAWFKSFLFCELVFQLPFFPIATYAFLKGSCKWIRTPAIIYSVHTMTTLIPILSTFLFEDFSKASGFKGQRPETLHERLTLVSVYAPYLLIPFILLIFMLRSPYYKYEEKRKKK
Sequence of Sigma non-opioid intracellular receptor 1 (Q99720 whole entry): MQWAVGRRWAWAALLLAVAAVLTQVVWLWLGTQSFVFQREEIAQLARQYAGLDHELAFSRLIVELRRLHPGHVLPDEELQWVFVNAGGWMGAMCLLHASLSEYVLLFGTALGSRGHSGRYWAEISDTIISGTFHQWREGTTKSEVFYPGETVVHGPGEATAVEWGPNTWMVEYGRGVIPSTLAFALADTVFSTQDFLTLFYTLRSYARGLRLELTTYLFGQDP
Sequence of 5-hydroxytryptamine receptor 6 (P50406 whole entry): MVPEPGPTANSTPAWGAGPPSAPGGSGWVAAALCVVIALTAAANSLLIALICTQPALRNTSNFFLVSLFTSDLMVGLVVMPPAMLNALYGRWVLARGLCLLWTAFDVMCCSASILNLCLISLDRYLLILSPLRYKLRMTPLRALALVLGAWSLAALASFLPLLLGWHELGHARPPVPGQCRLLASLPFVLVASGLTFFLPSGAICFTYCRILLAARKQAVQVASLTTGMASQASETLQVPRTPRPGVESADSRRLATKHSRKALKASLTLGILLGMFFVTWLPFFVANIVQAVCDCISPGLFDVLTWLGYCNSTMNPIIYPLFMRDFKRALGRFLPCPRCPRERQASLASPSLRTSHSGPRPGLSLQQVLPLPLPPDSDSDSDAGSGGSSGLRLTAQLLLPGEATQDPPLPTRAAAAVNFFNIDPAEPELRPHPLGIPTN
Sequence of 5-hydroxytryptamine receptor 5A (P47898 whole entry): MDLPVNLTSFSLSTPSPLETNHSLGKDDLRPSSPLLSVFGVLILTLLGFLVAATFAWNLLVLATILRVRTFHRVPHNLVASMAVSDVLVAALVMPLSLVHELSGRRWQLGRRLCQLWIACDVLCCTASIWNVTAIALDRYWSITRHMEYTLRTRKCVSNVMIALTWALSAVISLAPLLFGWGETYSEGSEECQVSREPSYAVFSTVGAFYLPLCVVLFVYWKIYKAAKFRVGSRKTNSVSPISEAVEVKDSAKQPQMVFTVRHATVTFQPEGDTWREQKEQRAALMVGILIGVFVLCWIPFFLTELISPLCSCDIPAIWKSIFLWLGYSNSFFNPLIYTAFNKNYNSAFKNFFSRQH
Sequence of 5-hydroxytryptamine receptor 2A (P28223 whole entry): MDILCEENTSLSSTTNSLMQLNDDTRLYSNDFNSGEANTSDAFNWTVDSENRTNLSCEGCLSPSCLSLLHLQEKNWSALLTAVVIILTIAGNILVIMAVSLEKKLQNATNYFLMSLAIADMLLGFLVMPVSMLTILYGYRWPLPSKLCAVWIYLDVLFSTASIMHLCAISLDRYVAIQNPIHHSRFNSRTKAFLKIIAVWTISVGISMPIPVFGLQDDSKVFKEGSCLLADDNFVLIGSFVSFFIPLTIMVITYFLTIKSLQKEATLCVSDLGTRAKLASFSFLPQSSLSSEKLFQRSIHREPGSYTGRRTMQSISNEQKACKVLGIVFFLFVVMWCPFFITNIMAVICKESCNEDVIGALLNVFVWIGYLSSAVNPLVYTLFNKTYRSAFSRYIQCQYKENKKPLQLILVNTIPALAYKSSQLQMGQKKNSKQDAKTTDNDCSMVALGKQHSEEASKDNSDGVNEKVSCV
Sequence of D(3) dopamine receptor (P35462 whole entry): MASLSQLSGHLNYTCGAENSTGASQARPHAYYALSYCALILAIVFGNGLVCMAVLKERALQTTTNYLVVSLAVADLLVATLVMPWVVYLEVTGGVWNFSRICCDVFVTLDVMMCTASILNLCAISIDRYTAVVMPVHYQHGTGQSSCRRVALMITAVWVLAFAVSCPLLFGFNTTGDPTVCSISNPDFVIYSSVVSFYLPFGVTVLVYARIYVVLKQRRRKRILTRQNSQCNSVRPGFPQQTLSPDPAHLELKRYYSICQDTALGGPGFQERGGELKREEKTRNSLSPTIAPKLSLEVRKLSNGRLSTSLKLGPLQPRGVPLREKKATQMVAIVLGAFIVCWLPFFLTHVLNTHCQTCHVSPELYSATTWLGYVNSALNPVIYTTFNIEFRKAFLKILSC
Sequence of Mu-type opioid receptor (P35372 whole entry): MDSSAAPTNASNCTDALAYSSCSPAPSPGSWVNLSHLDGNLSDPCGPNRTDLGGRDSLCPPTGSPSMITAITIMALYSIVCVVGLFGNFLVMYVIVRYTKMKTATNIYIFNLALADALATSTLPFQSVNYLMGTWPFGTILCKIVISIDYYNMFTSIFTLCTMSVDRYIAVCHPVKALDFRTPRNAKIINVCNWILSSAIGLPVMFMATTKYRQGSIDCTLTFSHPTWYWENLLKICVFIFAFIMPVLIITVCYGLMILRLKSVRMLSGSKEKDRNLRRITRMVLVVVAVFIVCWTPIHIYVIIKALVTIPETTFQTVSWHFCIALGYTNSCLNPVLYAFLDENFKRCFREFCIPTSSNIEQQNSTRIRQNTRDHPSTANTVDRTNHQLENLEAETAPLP
Sequence of D(2) dopamine receptor (P14416 whole entry): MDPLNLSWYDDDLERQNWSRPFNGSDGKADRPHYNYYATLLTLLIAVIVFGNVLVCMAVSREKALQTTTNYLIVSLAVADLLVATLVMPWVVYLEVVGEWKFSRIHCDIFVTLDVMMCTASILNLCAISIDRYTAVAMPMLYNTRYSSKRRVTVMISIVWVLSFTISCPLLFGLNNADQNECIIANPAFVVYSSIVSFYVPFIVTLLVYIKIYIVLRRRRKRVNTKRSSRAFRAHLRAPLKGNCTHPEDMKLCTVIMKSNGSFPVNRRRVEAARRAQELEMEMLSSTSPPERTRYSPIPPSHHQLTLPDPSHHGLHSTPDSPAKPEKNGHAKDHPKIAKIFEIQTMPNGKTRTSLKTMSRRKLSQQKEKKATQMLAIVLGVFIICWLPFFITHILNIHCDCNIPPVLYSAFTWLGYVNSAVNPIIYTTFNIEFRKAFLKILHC

Usually Ki stands for the equilibrium dissociation constant of an inhibitor or competing ligand from its target. Regarding `COc1cccc([C@@H](C)NCCCc2ccccc2Cl)c1` [TECALCET HYDROCHLORIDE], the inhibitory constant (Ki) in experiment [1] amounted to 1.09 µM; in experiment [2], 0.0746 µM; in [3] it was 0.0415 µM; on Mu-type opioid receptor, 2.21 µM; on D(3) dopamine receptor, 0.875 µM; in experiment [4] it was 0.181 µM. In [5], this compound returned a Ki of 2.32 µM.
On to `NC[C@@H]1O[C@H](C23CC4CC(CC(C4)C2)C3)Cc2c1ccc(O)c2O`, for which the Ki in experiment [2] was determined as 0.754 µM; in experiment [6], 0.898 µM; on D(3) dopamine receptor, 0.545 µM.
`CCCCN1CCC(COC(=O)c2cc(Cl)c(N)c3c2OCCO3)CC1`: the inhibition constant Ki worked out at 0.0648 µM in experiment [2]; 0.0317 µM in experiment [3]; 1.53 µM in experiment [6]; 0.669 µM on D(3) dopamine receptor; 0.964 µM in experiment [4].
For the compound `CCOC(=O)c1c(C)[nH]c2ccc3c(c12)CN1CCc2cc(OC)ccc2C1O3` (stereo unspecified), the values for the inhibition constant (Ki) (on Mu-type opioid receptor; in experiment [6]) were 1.13 µM and 0.767 µM, respectively.
Consider `Clc1cccc(COc2cncc(N3CCNCC3)n2)c1`, for which the inhibition constant Ki in [3] turned out to be 0.0327 µM; on D(3) dopamine receptor, 0.284 µM; in experiment [4], 0.105 µM.
`C[C@@H](NCCCc1cccc(C(F)(F)F)c1)c1cccc2ccccc12` [CINACALCET HYDROCHLORIDE]: the inhibition constant (Ki) came out at 0.972 µM in experiment [1]; 0.388 µM in experiment [2]; 1.3 µM on Mu-type opioid receptor; 0.391 µM on D(3) dopamine receptor; 0.842 µM in experiment [4]; 1.82 µM in [5].
As for `O=S1(=O)c2cccc3cccc(c23)N1CCCN1CCN(c2ccc(F)cc2)CC1` [FANANSERIN], the Ki in experiment [1] was determined as 6.73 µM; in experiment [2], 1.32 µM; in experiment [3], 0.696 µM; in experiment [6], 2.02 µM; at D(3) dopamine receptor, 1.02 µM; in [5], 5.11 µM.
Take `CN1CCN(c2ccc(Nc3c4ccccc4nc4ccccc34)cc2)CC1`: the Ki came to 0.936 µM in experiment [2], 0.412 µM in [3], 1.75 µM in [7] and 0.378 µM in experiment [5].
`Cc1nc(-c2ccc(-c3ccc(C(=O)N4CCc5cc6c(cc54)C4(CCN(C)CC4)CO6)cc3)c(C)c2)no1` [SB-224289]: the Ki in experiment [2] was found to be 0.502 µM; in experiment [3], 4.34 µM; in experiment [6], 2.43 µM; in experiment [7], 2.11 µM; in experiment [4] it was 1.78 µM.
As to `Cc1cn2cc(CC(=O)N3CCC4(CC3)CN(Cc3ccc(-n5nccn5)cc3Cl)C4)nc2s1`, the inhibition constant (Ki) in [3] worked out at 0.52 µM; at D(3) dopamine receptor it was 0.48 µM.
In the case of `COc1ccc(NS(=O)(=O)c2sc3ccc(Cl)cc3c2C)cc1N1CCNCC1`, the Ki in [1] came out at 1.91 µM; in [2] it was 0.663 µM; in experiment [3], 0.598 µM; at Mu-type opioid receptor it was 3.58 µM; in experiment [6], 0.59 µM.
Turning to `Cc1c(P(=S)(c2ccccc2)c2ccccc2)n2ccccc2[n+]1C/C=C/c1ccccc1`, the Ki is 0.701 µM in experiment [2]; 0.816 µM in [3]; 0.102 µM on Mu-type opioid receptor; 0.568 µM in [6]; 2.79 µM in experiment [4].
Turning to `CN(C)C(=O)N[C@H]1CC[C@H](CCN2CCN(c3cccc(Cl)c3Cl)CC2)CC1` [CARIPRAZINE HYDROCHLORIDE], the inhibition constant Ki in experiment [1] turned out to be 3.29 µM; in experiment [2] it was 0.488 µM; in experiment [6], 1.74 µM; in experiment [7], 0.323 µM; in experiment [5], 1.3 µM.
`CCc1cc2c(cc1CC)CC(NC[C@H](O)c1ccc(O)c3[nH]c(=O)ccc13)C2` [INDACATEROL]: the inhibition constant (Ki) was 0.107 µM in [2]; 1.34 µM at D(3) dopamine receptor; 0.731 µM in [7]; 2.02 µM in experiment [4]; more than 10 µM in experiment [5].
On to `Cc1cc(C)cc(-c2cnc3cc(Cl)c(-c4cccc(O)c4)cc3c2OCCCN)c1`, for which the Ki in [1] is 0.847 µM; in [2], 5.21 µM; in experiment [3] it was more than 10 µM; on Mu-type opioid receptor, 5.57 µM; in experiment [6] it was 0.852 µM; at D(3) dopamine receptor, 0.416 µM. Also, the figures for the inhibitory constant (Ki) in [7] and in experiment [4] were 1.68 µM and 3.43 µM, respectively.
Consider `CCc1ccc(OCc2ccccc2C(=O)Nc2ccc3nc(C)cc(N)c3c2)cc1`, for which the inhibition constant (Ki) in [1] was found to be 2.45 µM; in experiment [2], 0.7 µM; in [3] it was 2.28 µM; on Mu-type opioid receptor it was 0.495 µM; in experiment [7], 2.08 µM; in experiment [4] it was 0.548 µM.
For `S=C(NCCCc1c[nH]cn1)NCCCN(Cc1ccc(Cl)c(Cl)c1)c1ccc(Br)cn1`, the inhibitory constant (Ki) in experiment [1] came to 1.55 µM; in experiment [2], 0.153 µM; in experiment [6] it was 0.178 µM; at D(3) dopamine receptor, 0.641 µM; in [7], 1.7 µM; in experiment [4] it was 0.202 µM. In experiment [5], this compound displayed a Ki of 1.33 µM.
With `NCCc1cn(S(=O)(=O)c2c(Cl)nc3sccn23)c2ccccc12`, the Ki in experiment [2] was determined as 0.675 µM; in experiment [3], 1.32 µM; in experiment [6], 0.153 µM; in experiment [4], 0.111 µM.
On to `C[C@H](Cc1cc2c(c(C(N)=O)c1)N(CCCO)CC2)NCCOc1ccccc1OCC(F)(F)F` [SILODOSIN], for which the inhibition constant (Ki) in experiment [6] turned out to be 0.683 µM; on D(3) dopamine receptor it was 0.0716 µM; in [7], 0.0473 µM; on D(2) dopamine receptor, 0.989 µM.
Consider `COc1ccc(NC(=O)c2ccc(-c3ccc(-c4noc(C)n4)cc3C)cc2)cc1OCCN(C)C`, for which the inhibitory constant (Ki) was 1.16 µM in experiment [1]; 0.694 µM in experiment [2]; 3.11 µM in experiment [3]; 0.44 µM in experiment [6]; 0.0357 µM in experiment [4].
For the compound `COc1cc(-n2cnc3cc(-c4ccc(Cl)cc4)sc3c2=O)ccc1OCCN1CCCC1`, the inhibition constant Ki in experiment [1] was determined as 0.557 µM; in experiment [2], 0.185 µM; in [3], 0.012 µM; in [6], 2.94 µM; at D(3) dopamine receptor, 0.768 µM; in experiment [7], 6.05 µM.
Regarding `OCc1cc(C(O)CNCCCCCCOCCCCc2ccccc2)ccc1O` (stereo unspecified) [SALMETEROL], the Ki in [2] was 0.0324 µM; in [6] it was more than 10 µM; on D(3) dopamine receptor, 1.26 µM; in experiment [7], 0.963 µM.
As to `Cc1nn(C)c(C)c1-c1cccc2c1CC[C@H](N(C)C)C2`, the Ki was 0.0752 µM in experiment [1], 1.12 µM in experiment [2], 0.158 µM in experiment [3] and 0.647 µM in experiment [6].
